Patent US8106092B2, “Treatment of solid cancers” (priority 2004, dated 2012)

Legend:
[1] = test system: Lewis lung-OVA tumors; assay: PEP005-mediated cure of primary Lewis lung-OVA tumors, challenge with secondary Lewis lung-OVA; format: in vivo, C57BL/6 mice
Procedure: FIGS. 4A to D are graphical representations showing protection against secondary tumors following cure of primary tumors with PEP005. (A) C57BL/6 mice received 5×10^5 Lewis lung-OVA s.c. on the back on day less 7 (d−7). When these primary tumors had reached an average 13.6 mm^2±1.8 SE (range 10-25 mm^2) on d0 they were treated once with 16 μg of PEP005 delivered i.t. In eight mice these primary tumors were cured, and these mice received 5×10^5 Lewis lung-OVA s.c. on d4 on the opposite flank from the primary tumors. The emergence of these secondary tumors was monitored over time (PEP005 cured). In a parallel group of animals (n=5) PEP005 treatment regressed the primary tumors, but after 11-13 days the primary tumors re-emerged. These animals also received secondary tumors as above and their emergence was again monitored over time (PEP005 regressed). Two control groups were included. One group (n=6) received no primary tumors, but was treated s.c. with PEP005 and received secondary tumors on the opposite flank (white triangles, PEP005 s.c.). The second control group (n=8) also received no primary tumors, was not treated with PEP005, and received secondary tumors as above (Controls). […] The experiment in (A) was repeated in Foxnl^nu mice; PEP005 cured (n=4), PEP005 regressed (n=7), Control (n=7). A PEP005 s.c. group was not included. (C) Treatment of primary Lewis lung-OVA with PEP005 induced SIINFEKL-specific CD8^+ T-cell responses using IFNγ ELISPOT when the secondary tumors had emerged or on d50. (D) Reduced growth of B16-OVA lung metastases following successful treatment of s.c. B16-OVA tumors with PEP005. C57BL/6 mice received 5×10^5 B16-OVA s.c. on the back on d−6. When these primary tumors had reached 10-20 mm^2 on d0, they were treated once with 18 μg of PEP005 delivered i.t., which cured the tumors in eight mice (PEP005 cured) and regressed the tumors in five mice (PEP005 regressed). Controls as above. Secondary B16-OVA (10^5) were injected i.v. on d6 and animals were sacrificed on d27 and lung metastases counted.
B16 and B16 cells stably expressing ovalbumin (B16-OVA)were grown s.c. in C57BL/6 mice as described previously (Ogbourne et al, Cancer Res 64:2833-2839, 2004; Anraku et al, J Virol 76:3791-3799, 2002). Lung metastases were established as described (Zeh et al, J Immunol 162:989-994, 1999). Lewis lung-OVA (Nelson et al, J Immunol 166:5557-5566, 2001) were grown s.c. in C57BL/6 as described (Lenarczyk et al, Vaccine 22:963-974, 2004).
Tumors were treated by topical or intratumoral (i.t.) injection (using a 26 gauge needle) of (i) PEP0005 dissolved in acetone and then RPMI 1640 (final concentration of acetone 4%), or (ii) PEP005 formulated in PEG400. […]

[2] = test system: B16-OVA tumors; assay: PEP005-mediated cure of primaries plus DC therapy, growth of secondary tumors, s.c. B16-OVA model; format: in vivo, C57BL/6 mice; conditions: Log rank p<0.001 (PEP005) and =0.002 (DC)
Procedure: FIGS. 13A to C are graphical representations showing synergistic effects between PEP005-mediated cure of primaries and DC therapy on the growth of secondary tumors and on CD8^+ T-cell induction. (A) On d−3 C57BL/6 mice where inoculated with 2×10^6 B16-OVA cells on the right flank (primary tumor) and 2×10^4 B16-OVA cells on the left flank (secondary tumor). On d0 and d1 the primary B16-OVA tumors, which has reach 30.4 mm^2+SD6 were cured with i.t. injections of 25 μg of PEP005 formulated in PEG400. On d4 and d11 mice received DC therapy using DC2.4 cells pulsed with SVYDFFVWL [SEQ ID NO:1], KVPRNQDWL [SEQ ID NO:4] and SIINFEKL [SEQ ID NO:2] peptides, and ovalbumin (n=12, PEP005+DC). […] Animal groups were established and treated as in (A) except that on d12 mice were sacrificed and splenocytes analyzed in an ex vivo ELISPOT assay for responses to SVYDFFVWL [SEQ ID NO:1], KVPRNQDWL [SEQ ID NO:4] and SIINFEKL [SEQ ID NO:2] […]
To determine whether the immunostimulatory activity of PEP005-mediated cure of primary tumors would synergize with DC therapy to reduce growth of secondaries, four groups of C57BL/6 mice were established using the s.c. B16-OVA model. […] The growth of secondary tumors was monitored over time.

C/C=C(/C)C(=O)O[C@H]1C(C)=C[C@]23C(=O)[C@@H](C=C(CO)[C@@H](O)[C@]12O)[C@H]1[C@@H](C[C@H]3C)C1(C)C [PEP005, ingenol-3-angelate]
growth of secondary tumors ([1]; PEP005 regressed but failed to cure the primary tumors (n=5), not significant): slightly delayed | growth of secondary tumors ([1]; no primary tumors, PEP005 s.c. at a site distant from the secondary tumors): failed to reduce the growth of the secondary tumors | animals in which secondary tumors failed to appear ([1]; primary tumor cured by i.t. PEP005 (n=8), secondary inoculated d4 on opposite flank): 50% | emergence of secondary tumors ([1]; primary tumor cured by i.t. PEP005 (n=8), log rank p=0.002): significantly delayed | growth of secondaries vs no treatment controls [2]: significantly reduced the growth of secondaries
